In patent US9328106B2, “Cyclic ether pyrazol-4-yl-heterocyclyl-carboxamide compounds and methods of use” (Genentech, Inc., priority 2012, dated 2016):
pEC50, pIC50, pKi: −log10 of the molar value. Where two headings read alike, the source gives them in different places.

Key:
[1] = test system: BaF3 parental cells; test: In vitro cell proliferation, BaF3 parental line + IL3; type: cell-based, murine; conditions: Mus musculus, BaF3, BaF3 parental, mIL-3, incubated overnight, CELL TITER GLO; read-out: Prolif BaF3 IL3 (IC50);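 further: BaF3 parental cells are murine IL-3 dependent pro-B cells grown with 2 ng/mL mIL-3, 384-well format, viability read by luminescence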
[2] = test system: BaF3 PIM1 cells; test: In vitro cell proliferation, BaF3 transfected with PIM1; type: cell-based, murine; conditions: Mus musculus;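 further: murine IL-3-dependent pro-B BaF3 cells transfected with PIM1, compound exposure overnight at 37 °C under 5% CO2, viability read as luminescence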
Experimental: (§1) BaF3 parental line was obtained from the DSMZ repository. […] Media for BaF3 parental line contained RPMI, 10% FBS, 2 mM L-Glutamine, 2 ng/mL mIL-3. Media for BaF3 PIM1 & 2 lines contained RPMI, 10% FBS, 2 mM L-Glutamine, 250 μg/mL. Media for MM1.S (multiple myeloma cells) line contained RPMI, 10% FBS, 2 mM L-Glutamine.
(§2) BaF3, a murine interleukin-3 dependent pro-B cell line, parental cells, BaF3 PIM1 cells, BaF3 PIM2 cells, and MM1.S (multiple myeloma) cells were seeded at 2 k/well, 5 k/well, 5 k/well, and 10 k/well respectively, in a 384-well plate, at 45 μL/well. Test compound was added at 5 μL/well. BaF3 cells (parental and transfected) were incubated overnight, while MM1.S cells were incubated for 72 hours at 37° C., 5% CO2. CELL TITER GLO® Reagent (Promega) was added at 50 μL/well, the plates were incubated for 30 minutes, and their luminescence read on an HT Analyst. IC50/EC50 values for the test compound were calculated.

[3] = test system: MM1.S (multiple myeloma) cells; test: In vitro cell proliferation, MM1.S multiple myeloma cells; type: cell-based; conditions: Homo sapiens, MM1.S, 72 h, MM1.S cells, 72 hours, CELL TITER GLO; read-out: Prolif MM1S ATP (EC50);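 further: cells cultured in RPMI with 10% FBS and 2 mM L-Glutamine, seeded in 384-well plates, exposed to compound, cell viability measured by luminescence after CellTiter-Glo addition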
Experimental: as §1, §2

[4] = target: PIM1 (Homo sapiens (Human), UniProt P11309); test: biochemical; type: biochemical; conditions: 20 pM PIM1, 1 μM FAM-peptide, 10 μM ATP, 90 minutes at room temperature; read-out: PIM1 LC3K (KI)
Experimental: Reaction Buffer contained 10 mM HEPES, pH 7.2, 10 mM MgCl2, 0.01% Tween 20, 2 mM DTT. Termination Buffer contained 190 mM HEPES, pH 7.2, 0.015% Brij-35, 0.2% Coating Reagent 3 (Caliper Life Sciences, Hopkinton, Mass.), 20 mM EDTA. Separation Buffer contained 100 mM HEPES, pH 7.2, 0.015% Brij-35, 0.1% Coating Reagent 3, 1:200 Coating Reagent 8 (Caliper Life Sciences, Hopkinton, Mass.), 10 mM EDTA and 5% DMSO.
PIM reactions were carried out in a final volume of 10 μL per well in a 384-well plate. […] After 90 minutes of incubation at room temperature, the phosphorylation reaction was stopped by the addition of 10 μL Termination Buffer. The product and substrate in each independent reaction were separated on a 12-sipper microfluidic chip (Caliper Life Sciences, Hopkinton, Mass.) run on a Caliper LC3000® (Caliper Life Sciences, Hopkinton, Mass.). The separation of product and substrate was optimized by choosing voltages and pressure using Caliper's Optimizer software (Hopkinton, Mass.). The separation conditions used a downstream voltage of −500V, an upstream voltage of −2150V, and a screening pressure of −1.2 psi. […] Substrate conversion was calculated from the electropherogram using HTS Well Analyzer software (Caliper Life Sciences, Hopkinton, Mass.). Ki values for the test compound were calculated.

[5] = BaF3 PIM1 cells, incubated overnight, CELL TITER GLO, read-out: Prolif BaF3 PIM1 (IC50)
[6] = BaF3, read-out: Prolif BaF3 PIM1 (IC50), BaF3 PIM1 cells, incubated overnight, CELL TITER GLO

Sequence of PIM1 (P11309 whole entry): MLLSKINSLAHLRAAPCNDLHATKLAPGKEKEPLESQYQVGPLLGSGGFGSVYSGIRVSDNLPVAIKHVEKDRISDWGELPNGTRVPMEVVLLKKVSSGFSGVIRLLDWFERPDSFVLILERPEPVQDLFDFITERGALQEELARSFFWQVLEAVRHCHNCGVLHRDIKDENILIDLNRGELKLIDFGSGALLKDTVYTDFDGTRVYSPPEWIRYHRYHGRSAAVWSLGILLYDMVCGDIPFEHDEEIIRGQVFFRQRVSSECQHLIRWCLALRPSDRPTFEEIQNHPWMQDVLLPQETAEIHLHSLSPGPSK

SMILES | pIC50 [2, 5] | pEC50 [3] | pKi [4] | pIC50 [2, 6] | pIC50 [1]
Cn1ncc(NC(=O)c2csc(-c3c(F)ccc(C4CC4)c3F)n2)c1[C@@H]1CC[C@@H](N)[C@H](F)CO1 [Example 363, N-(5-((2S,5R,6S)-5-amino-6-fluorooxepan-2-yl)-1-methyl-1H-pyrazol-4-yl)-2-(3-cyclopropyl-2,6-difluorophenyl)thiazole-4-carboxamide] |  | 6.03 | 10.47 | 6.53 | 5.35
C[C@H]1O[C@@H](c2c(NC(=O)c3nc(-c4c(F)cccc4F)sc3N)cnn2C)C[C@@H](N)[C@]1(C)O (single isomer, unassigned) [Example 345] | 5.17 | < 4.60 |  |  | < 4.60
C[C@@H](O)c1ccc(-c2nc(C(=O)Nc3cnn(C)c3[C@@H]3CC[C@@H](N)[C@H](F)CO3)cs2)c(F)c1F (single isomer, unassigned) [Example 366] |  | 5.77 | 9.85 | 6.52 | 4.99
Cn1ncc(NC(=O)c2nc(-c3c(F)cccc3Cl)sc2N)c1[C@@H]1CC[C@@H](N)[C@H](F)CO1 [Example 328, 5-amino-N-(5-((2S,5R,6S)-5-amino-6-fluorooxepan-2-yl)-1-methyl-1H-pyrazol-4-yl)-2-(2-chloro-6-fluorophenyl)thiazole-4-carboxamide] |  | 5.82 | 10.44 | 7.67 | 4.90
CO[C@@H]1CO[C@H](c2c(NC(=O)c3csc(-c4c(F)cc(C)cc4F)n3)cnn2C)CC[C@H]1N [Example 355, N-(5-((2S,5R,6S)-5-amino-6-methoxyoxepan-2-yl)-1-methyl-1H-pyrazol-4-yl)-2-(2,6-difluoro-4-methylphenyl)thiazole-4-carboxamide] |  | 5.80 | 10.46 | 7.27 | 5.41
Cn1ncc(NC(=O)c2csc(-c3cc(=O)n(C)cc3F)n2)c1[C@@H]1CC[C@@H](N)[C@H](F)CO1 [Example 387, N-(5-((2S,5R,6S)-5-amino-6-fluorooxepan-2-yl)-1-methyl-1H-pyrazol-4-yl)-2-(5-fluoro-1-methyl-2-oxo-1,2-dihydropyridin-4-yl)thiazole-4-carboxamide] |  | 5.70 | 9.02 | 5.49 | 5.09
CC(C)C(=O)c1cc(F)c(-c2nc(C(=O)Nc3cnn(C)c3[C@@H]3CC[C@@H](N)[C@H](F)CO3)cs2)c(F)c1 [Example 367, N-(5-((2S,5R,6S)-5-amino-6-fluorooxepan-2-yl)-1-methyl-1H-pyrazol-4-yl)-2-(2,6-difluoro-4-isobutyrylphenyl)thiazole-4-carboxamide] |  | 5.27 | 10.21 | 6.61 | 4.62
C[C@H](O)c1ccc(-c2nc(C(=O)Nc3cnn(C)c3[C@@H]3CC[C@@H](N)[C@H](F)CO3)cs2)c(F)c1F (single isomer, unassigned) [Example 365] |  | 6.46 | 10.16 | 6.39 | 4.80
C[C@H]1O[C@@H](c2c(NC(=O)c3ccc(F)c(-c4c(F)cccc4F)n3)cnn2C)C[C@@H](N)[C@]1(C)O (single isomer, unassigned) [Example 343] | 6.47 | 6.11 |  |  | 4.89

Now from value to compound, other results behind:

pIC50 [2, 5] | pEC50 [3] | pKi [4] | pIC50 [2, 6] | SMILES | pIC50 [1]
5.05 | 5.01 |  |  | C[C@@H]1O[C@H](c2c(NC(=O)c3ccc(F)c(-c4c(F)cccc4F)n3)cnn2C)C[C@H](N)[C@@]1(C)O [Example 344, N-(5-((2S,4S,5R,6S)-4-amino-5-hydroxy-5,6-dimethyltetrahydro-2H-pyran-2-yl)-1-methyl-1H-pyrazol-4-yl)-6-(2,6-difluorophenyl)-5-fluoropicolinamide] | 4.85
 | 6.13 | 10.30 | 6.85 | Cn1ncc(NC(=O)c2csc(-c3ccc(F)cc3F)n2)c1[C@@H]1CC[C@@H](N)[C@H](F)CO1 [Example 325, N-(5-((2S,5R,6S)-5-amino-6-fluorooxepan-2-yl)-1-methyl-1H-pyrazol-4-yl)-2-(2,4-difluorophenyl)thiazole-4-carboxamide] | 5.20
 | 5.80 | 10.19 | 6.22 | Cc1[nH]nc(-c2nc(C(=O)Nc3cnn(C)c3[C@@H]3CC[C@@H](N)[C@H](F)CO3)cs2)c1C [Example 372, N-(5-((2S,5R,6S)-5-amino-6-fluorooxepan-2-yl)-1-methyl-1H-pyrazol-4-yl)-2-(4,5-dimethyl-1H-pyrazol-3-yl)thiazole-4-carboxamide] | 4.69
 | 4.67 | 8.64 | 4.90 | C[C@@H]1O[C@@H](c2c(NC(=O)c3csc(-c4c(F)cccc4F)n3)cnn2C)C[C@H](N)[C@@]1(C)O (single isomer, unassigned) [Example 342] | 5.00
 | 6.94 | 10.72 | 7.34 | Cn1ncc(NC(=O)c2nc(-c3cccc(F)c3F)sc2N)c1[C@@H]1CC[C@@H](N)[C@H](F)CO1 [Example 324, 5-amino-N-(5-((2S,5R,6S)-5-amino-6-fluorooxepan-2-yl)-1-methyl-1H-pyrazol-4-yl)-2-(2,3-difluorophenyl)thiazole-4-carboxamide] | < 4.60
 | 6.19 | 10.66 | 7.10 | Cn1ncc(NC(=O)c2csc(-c3n[nH]c4ccccc34)n2)c1[C@@H]1CC[C@@H](N)[C@H](F)CO1 [Example 381, N-(5-((2S,5R,6S)-5-amino-6-fluorooxepan-2-yl)-1-methyl-1H-pyrazol-4-yl)-2-(1H-indazol-3-yl)thiazole-4-carboxamide] | 5.24
6.29 | 5.37 |  |  | C[C@@H]1O[C@H](c2c(NC(=O)c3nc(-c4c(F)cccc4F)sc3N)cnn2C)C[C@H](N)[C@@]1(C)O [Example 346, 5-amino-N-(5-((2S,4S,5R,6S)-4-amino-5-hydroxy-5,6-dimethyltetrahydro-2H-pyran-2-yl)-1-methyl-1H-pyrazol-4-yl)-2-(2,6-difluorophenyl)thiazole-4-carboxamide] | < 4.60
6.02 | 4.90 |  |  | Cc1nn(C)c(F)c1-c1nc(C(=O)Nc2cnn(C)c2[C@@H]2CC[C@@H](N)[C@H](F)CO2)cs1 [Example 286, N-(5-((2S,5R,6S)-5-amino-6-fluorooxepan-2-yl)-1-methyl-1H-pyrazol-4-yl)-2-(5-fluoro-1,3-dimethyl-1H-pyrazol-4-yl)thiazole-4-carboxamide] | 4.95
6.90 | 6.16 |  |  | Cc1ccc(-c2nc(C(=O)Nc3cnn(C)c3[C@@H]3CC[C@@H](N)[C@H](F)CO3)cs2)c(F)c1 [Example 316, N-(5-((2S,5R,6S)-5-amino-6-fluorooxepan-2-yl)-1-methyl-1H-pyrazol-4-yl)-2-(2-fluoro-4-methylphenyl)thiazole-4-carboxamide] | 5.03
 | 5.77 |  | 6.46 | Cn1ncc(NC(=O)c2nc(-c3c(Cl)cccc3C(F)(F)F)sc2N)c1[C@@H]1CC[C@@H](N)[C@H](F)CO1 [Example 329, 5-amino-N-(5-((2S,5R,6S)-5-amino-6-fluorooxepan-2-yl)-1-methyl-1H-pyrazol-4-yl)-2-(2-chloro-6-(trifluoromethyl)phenyl)thiazole-4-carboxamide] | 5.62
